Read-outs that look alike come from different tables or passages of the source.
Legend:
[1] = Mouse liver microsome stability assay; type: in vitro ADME; conditions: 3 h at 37° C., LC-MS/MS, ± SEM of 3 biological replicates
Method: Mouse Liver Microsome Stability Assay. A mixture of PBS (pH 7.4), NADPH regenerating system solution A (Corning Life Sciences), and NADPH regenerating system solution B (Corning Life Sciences) was incubated at 37° C. in a shaking incubator for 5 min. Next, compound was added in DMSO (final concentration 50 μM, 0.5% DMSO) before ice-cold mouse liver microsomes (Thermo Fisher, male CD-1 mice, pooled) were added (final protein concentration of 1 mg/mL). An aliquot was immediately removed, quenched with an equal volume of 100 μM internal standard and centrifuged at 13,000 rcf for 3 min. The reactions were incubated at 37° C. in a shaking incubator for 3 h. A second aliquot was removed and quenched. Samples were analyzed with the 5500 QTRAP LC/MS/MS system (Sciex, Framingham, MA) in Metabolomics Lab of Roy J. Carver Biotechnology Center, University of Illinois at Urbana-Champaign. Software Analyst 1.6.2 was used for data acquisition and analysis. The 1200 series HPLC system (Agilent Technologies, Santa Clara, CA) includes a degasser, an autosampler, and a binary pump. The LC separation was performed on an Agilent Sb-Aq column (4.6×50 mm, […]) with mobile phase A (0.1% formic acid in water) and mobile phase B (0.1% formic acid in acetonitrile). The flow rate was 0.3 mL/min. The linear gradient was as follows: 0-3 min, 100% A; 10-16 min, 5% A; 16.5-22 min, 100% A. The autosampler was set at 10° C. The injection volume was 1 μL. Mass spectra were acquired under both positive (ion spray voltage was +5500 V) and negative (ion spray voltage was −4500 V) electrospray ionization (ESI). The source temperature was 450° C. The curtain gas, ion source gas 1, and ion source gas 2 were 33, 65, and 60 psi, respectively. Multiple reaction monitoring (MRM) was used for quantitation.

[2] = test system: S. aureus resistant mutants with EF-G (fusA) mutations; experiment: microbe, parasite or virus in culture; type: cell-based; conditions: for MIC: Staphylococcus aureus
Method: Antimicrobial Susceptibility Tests. Susceptibility testing was performed in biological triplicate, using the micro-dilution broth method as outlined by the Clinical and Laboratory Standards Institute. Bacteria were cultured with cation-adjusted Muller-Hinton broth (Sigma-Aldrich, Cat #90922) in round-bottom 96-well plates (Corning, Cat #3788). Human serum (Ultrafiltrate, unspecified gender, 30K Dalton membrane filtered) was purchased from BioIVT (Hicksville, NY).
Selection of Resistant Mutants. Resistant mutants were selected via the large inoculum method. Briefly, S. aureus ATCC 29213 (1×10^9 CFU) were plated on 100 mm plates of LB agar containing 4, 2, 1, 0.5, and 0.25 μg/mL.
Sequencing of fusA. FusA was amplified by colony PCR. Colonies were picked and diluted in 100 μL sterile H2O. PCR reactions are setup by combining MiFi Mix (Bioline, London, UK), 20 μM primer mix [fusA-F2, fusA_seq1, Forward EF-G2, and Reverse EF-G](S. aureus ATCC 29213), template DNA, and H2O. Reactions were performed on C1000 Thermal Cycler (Bio-Rad, Hercules, CA) with the following conditions: 5 minutes denaturation at 95° C., followed by 30 cycles of 20 seconds at 95° C., 20 seconds at 50° C., and either 1 minute (fusA1) or 1.5 minutes (fusA2) at 72° C. A 10 μL portion of the PCR reaction mixture was analyzed by agarose gel to confirm the product. PCR reactions were purified using GeneJET PCR Purification Kit (Thermo Scientific). PCR amplicons were submitted to the Core DNA Sequencing Facility at the University of Illinois at Urbana-Champaign for Sanger sequencing with the following primers to sequence the fusA [fusA2, fusA_seq1, Forward EF-G2, Forward EF-G3, Forward EF-G4]

[3] = test system: multidrug-resistant clinical isolates of S. aureus; experiment: MIC against multidrug-resistant clinical isolates of S. aureus; type: cell-based; conditions: for MIC: Staphylococcus aureus
S. aureus ATCC BAA-1721 = experiment: MIC against strain possessing the fusC gene; type: cell-based; conditions: Staphylococcus aureus, ATCCBAA1721
E. faecium ATCC 19434 = experiment: MIC against sensitive E. faecium strain; type: cell-based; conditions: Enterococcus faecium, ATCC19434; sensitive strain E. faecium ATCC 19434

CC(=O)O[C@H]1C[C@@]2(C)[C@@H](C[C@@H](O)[C@H]3[C@@]4(C)CC[C@@H](O)[C@@H](C)[C@@H]4CC[C@@]32C)/C1=C(\CCC=C1CCCC1)C(=O)O [FA-CP, (Z)-2-((3R,4S,5S,8S,9S,10S,11R,13R,14S,16S)-16-acetoxy-3,11-dihydroxy-4,8,10,14-tetramethylhexadecahydro-17H-cyclopenta[a]phenanthren-17-ylidene)-5-cyclopentylidenepentanoic acid]
78 ± 4%: Metabolic Stability in Mouse Liver Microsomes (percent remaining) [1]
8 µg/mL: MIC (S. aureus ATCC BAA-1721)
32 µg/mL: MIC ([2]; read-out: MIC for FA-CP, strain FA-CP-32X-1, EF-G H457Y) | MIC ([2]; read-out: MIC for FA-CP, strain FA-CP-32X-4, EF-G H457Y) | MIC ([2]; read-out: MIC for FA-CP, strain FA-CP-32X-9, EF-G H457Y) | MIC ([2]; read-out: MIC for FA-CP, strain FA-CP-32X-10, EF-G D434N) | MIC ([2]; read-out: MIC for FA-CP, strain FA-CP-32X-11, EF-G H457Y) | MIC ([2]; read-out: MIC for FA-CP, strain FA-CP-32X-12, EF-G D434N) | MIC ([2]; read-out: MIC for FA-CP, strain FA-CP-32X-14, EF-G H457Y) | MIC ([2]; read-out: MIC for FA-CP, strain FA-CP-32X-19, EF-G H457Y) | MIC ([2]; read-out: MIC for FA-CP, strain FA-CP-32X-20, EF-G H457Y)
0.125 µg/mL: MIC ([3]; NRS18, S. aureus NRS18 (NARSA)) | MIC ([3]; NRS23, S. aureus NRS23 (NARSA)) | MIC ([3]; NRS27, S. aureus NRS27 (NARSA)) | MIC ([3]; NRS29, S. aureus NRS29 (NARSA)) | MIC ([3]; NRS68, S. aureus NRS68 (NARSA)) | MIC ([3]; NRS73, S. aureus NRS73 (NARSA)) | MIC ([3]; NRS74, S. aureus NRS74 (NARSA)) | MIC ([3]; NRS76, S. aureus NRS76 (NARSA)) | MIC ([3]; NRS383, S. aureus NRS383 (NARSA)) | MIC ([3]; NRS384, S. aureus NRS384 (NARSA)) | MIC ([3]; S. aureus AR0561 (CDC)) | MIC ([3]; S. aureus AR0562 (CDC)) | MIC ([3]; S. aureus AR0563 (CDC)) | MIC ([3]; S. aureus AR0564 (CDC)) | MIC ([3]; S. aureus AR0566 (CDC)) | MIC ([3]; S. aureus AR0567 (CDC)) | MIC ([3]; S. aureus AR0568 (CDC)) | MIC ([3]; S. aureus AR0570 (CDC))
64 µg/mL: MIC ([2]; read-out: MIC for FA-CP, strain FA-CP-32X-2, EF-G H457Y) | MIC ([2]; read-out: MIC for FA-CP, strain FA-CP-32X-3, EF-G H457Y) | MIC ([2]; read-out: MIC for FA-CP, strain FA-CP-32X-5, EF-G H457Y) | MIC ([2]; read-out: MIC for FA-CP, strain FA-CP-32X-6, EF-G H457Y) | MIC ([2]; read-out: MIC for FA-CP, strain FA-CP-32X-7, EF-G H457Y) | MIC ([2]; read-out: MIC for FA-CP, strain FA-CP-32X-8, EF-G H457Y) | MIC ([2]; read-out: MIC for FA-CP, strain FA-CP-32X-13, EF-G H457Y) | MIC ([2]; read-out: MIC for FA-CP, strain FA-CP-32X-15, EF-G H457Y) | MIC ([2]; read-out: MIC for FA-CP, strain FA-CP-32X-16, EF-G F88L) | MIC ([2]; read-out: MIC for FA-CP, strain FA-CP-32X-17, EF-G F88L) | MIC ([2]; read-out: MIC for FA-CP, strain FA-CP-32X-18, EF-G H457Y)
0.0625 µg/mL: MIC ([3]; NRS3, S. aureus NRS3 (NARSA)) | MIC ([3]; NRS4, S. aureus NRS4 (NARSA)) | MIC ([3]; NRS17, S. aureus NRS17 (NARSA)) | MIC ([3]; NRS21, S. aureus NRS21 (NARSA)) | MIC ([3]; NRS22, S. aureus NRS22 (NARSA)) | MIC ([3]; NRS24, S. aureus NRS24 (NARSA)) | MIC ([3]; NRS26, S. aureus NRS26 (NARSA)) | MIC ([3]; NRS51, S. aureus NRS51 (NARSA)) | MIC ([3]; NRS77, S. aureus NRS77 (NARSA), no noted resistance) | MIC ([3]; NRS382, S. aureus NRS382 (NARSA)) | MIC ([3]; S. aureus AR0565 (CDC))
2 µg/mL: MIC (E. faecium ATCC 19434)
512: Fold increase from WT S. aureus of highest MIC ([2]; colonies generated from the same compound at 32× the MIC)
no cross-resistance with vancomycin: Cross-resistance with vancomycin ([3]; 29 clinical isolates of S. aureus)
